Data: ChEMBL document CHEMBL1201862, “PubChem BioAssay data set” (2004)
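Where inhibition never reached the appropriate level, the endpoint shown equals the highest concentration tested. Otherwise, values were interpolated linearly from a five-concentration, 48-hour dose response in 96-well plates. GI50 marks 50% less growth.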 Activity calls are given as the source filed them. Rule as the data show it: active = GI50 up to about 1.1 µM and inactive = higher.

Experiments:
Test in all cases: NCI anticancer screen, dose series, 48 h
786-0 = system: 786-0
A498 = system: A498
HOP-62 = system: HOP-62
IGROV-1 = system: IGROV-1
K562 = system: K562
KM12 = system: KM12
MOLT-4 = system: MOLT-4
NCI-H460 = system: NCI-H460
OVCAR-4 = system: OVCAR-4
OVCAR-5 = system: OVCAR-5
RPMI-8226 = system: RPMI-8226
SF-268 = system: SF-268
SF-539 = system: SF-539
SK-MEL-5 = system: SK-MEL-5
SNB-75 = system: SNB-75
TK-10 = system: TK-10
HOP-92 = system: HOP-92

| Compound | GI50 (786-0) | GI50 (A498) | GI50 (HOP-62) | GI50 (IGROV-1) | GI50 (K562) | GI50 (KM12) | GI50 (MOLT-4) | GI50 (NCI-H460) | GI50 (OVCAR-4) | GI50 (OVCAR-5) | GI50 (RPMI-8226) | GI50 (SF-268) | GI50 (SF-539) | GI50 (SK-MEL-5) | GI50 (SNB-75) | GI50 (TK-10) | GI50 (HOP-92) |
| --- | --- | --- | --- | --- | --- | --- | --- | --- | --- | --- | --- | --- | --- | --- | --- | --- | --- |
| N#CCCN(CCC#N)c1ccc(/C=C(/NC(=O)c2cc([N+](=O)[O-])ccc2Cl)C(=O)NN)cc1 | > 100 µM (inactive) | > 100 µM (inactive) | > 100 µM (inactive) | > 100 µM (inactive) | > 100 µM (inactive) | > 100 µM (inactive) | 44.8 µM (inactive) | > 100 µM (inactive) | > 100 µM (inactive) | > 100 µM (inactive) | 29.6 µM (inactive) | > 100 µM (inactive) | > 100 µM (inactive) | > 100 µM (inactive) | > 100 µM (inactive) | > 100 µM (inactive) | – |
| CC(=O)Oc1c(-c2ccccc2)[nH]c2cc([N+](=O)[O-])c(/C(Cl)=C/c3ccccc3)cc12 | 11.2 µM (inactive) | 2.88 µM (inactive) | 25.9 µM (inactive) | 9.46 µM (inactive) | 3.82 µM (inactive) | 3.97 µM (inactive) | 2.84 µM (inactive) | 4.62 µM (inactive) | 5.42 µM (inactive) | 4.22 µM (inactive) | 3.08 µM (inactive) | 7.96 µM (inactive) | – | 1.89 µM (inactive) | 15.6 µM (inactive) | 19.8 µM (inactive) | 3.65 µM (inactive) |
| C=CCC1(CN(C)C)CC/C(=C\c2ccc(OC)cc2)C1=O (stereo not given) | 65.8 µM (inactive) | 73.5 µM (inactive) | > 100 µM (inactive) | > 100 µM (inactive) | 32.9 µM (inactive) | 74.3 µM (inactive) | 28.7 µM (inactive) | > 100 µM (inactive) | 88.7 µM (inactive) | > 100 µM (inactive) | 23.9 µM (inactive) | > 100 µM (inactive) | > 100 µM (inactive) | 41.5 µM (inactive) | > 100 µM (inactive) | > 100 µM (inactive) | 83.6 µM (inactive) |
| Cc1ccccc1C(=O)Oc1ccc(OCc2ccccc2)cc1 | 51.2 µM (inactive) | 34.5 µM (inactive) | > 100 µM (inactive) | > 100 µM (inactive) | 47.6 µM (inactive) | > 100 µM (inactive) | 9.44 µM (inactive) | 39.1 µM (inactive) | > 100 µM (inactive) | 45.3 µM (inactive) | 25.6 µM (inactive) | > 100 µM (inactive) | > 100 µM (inactive) | 48.6 µM (inactive) | > 100 µM (inactive) | > 100 µM (inactive) | > 100 µM (inactive) |
| CCC(=O)CCC1=Nc2nnc(CCCCc3nnc4n3C(=O)C(CCC(=O)CC)=N4)n2C1=O | > 100 µM (inactive) | > 100 µM (inactive) | > 100 µM (inactive) | > 100 µM (inactive) | > 100 µM (inactive) | > 100 µM (inactive) | > 100 µM (inactive) | > 100 µM (inactive) | > 100 µM (inactive) | > 100 µM (inactive) | > 100 µM (inactive) | > 100 µM (inactive) | > 100 µM (inactive) | – | > 100 µM (inactive) | > 100 µM (inactive) | > 100 µM (inactive) |
| Oc1ccccc1/C=N/Cc1ccco1 | > 100 µM (inactive) | > 100 µM (inactive) | > 100 µM (inactive) | > 100 µM (inactive) | > 100 µM (inactive) | > 100 µM (inactive) | > 100 µM (inactive) | > 100 µM (inactive) | > 100 µM (inactive) | > 100 µM (inactive) | > 100 µM (inactive) | > 100 µM (inactive) | > 100 µM (inactive) | – | > 100 µM (inactive) | > 100 µM (inactive) | – |
| Nc1ccc2ncc(Nc3ccc(F)cc3)nc2c1 | > 100 µM (inactive) | – | > 100 µM (inactive) | – | 52.5 µM (inactive) | 46.3 µM (inactive) | 27.7 µM (inactive) | > 100 µM (inactive) | > 100 µM (inactive) | 84.5 µM (inactive) | 87.3 µM (inactive) | > 100 µM (inactive) | 90.4 µM (inactive) | 34.9 µM (inactive) | > 100 µM (inactive) | > 100 µM (inactive) | – |
| NC(=O)C12CC3CC(CC(F)(C3)C1)C2 | > 100 µM (inactive) | > 100 µM (inactive) | > 100 µM (inactive) | > 100 µM (inactive) | > 100 µM (inactive) | > 100 µM (inactive) | > 100 µM (inactive) | > 100 µM (inactive) | – | > 100 µM (inactive) | > 100 µM (inactive) | – | > 100 µM (inactive) | – | 57.4 µM (inactive) | > 100 µM (inactive) | > 100 µM (inactive) |
| COc1ccc(CC(=O)NCCc2ccc(OC)c(OC)c2)cc1Br | > 100 µM (inactive) | > 100 µM (inactive) | > 100 µM (inactive) | > 100 µM (inactive) | > 100 µM (inactive) | > 100 µM (inactive) | > 100 µM (inactive) | > 100 µM (inactive) | > 100 µM (inactive) | 57.1 µM (inactive) | – | > 100 µM (inactive) | > 100 µM (inactive) | – | – | > 100 µM (inactive) | > 100 µM (inactive) |
| Nc1nc(N)c(CCCCc2ccccc2)c(/C=C/c2ccc([N+](=O)[O-])cc2)n1 | 0.785 µM (active) | – | 2.77 µM (inactive) | 2.8 µM (inactive) | 0.348 µM (active) | 3.03 µM (inactive) | 1.14 µM (inactive) | 0.873 µM (active) | 3.94 µM (inactive) | 3.87 µM (inactive) | 3.31 µM (inactive) | 3.7 µM (inactive) | 2.16 µM (inactive) | 2.18 µM (inactive) | 2.47 µM (inactive) | 1.8 µM (inactive) | 0.0182 µM (active) |
| CC(=O)OCC1OC(n2c(=S)n(-c3ccccc3)c(=O)c3cc(Br)ccc32)C(OC(C)=O)C1OC(C)=O (stereo not given) | > 100 µM (inactive) | > 100 µM (inactive) | > 100 µM (inactive) | > 100 µM (inactive) | – | > 100 µM (inactive) | 53.8 µM (inactive) | > 100 µM (inactive) | > 100 µM (inactive) | > 100 µM (inactive) | 51.3 µM (inactive) | > 100 µM (inactive) | > 100 µM (inactive) | > 100 µM (inactive) | 83.9 µM (inactive) | – | > 100 µM (inactive) |
| C[N+](C)=c1nc(N2CCOCC2)ss1 | > 100 µM (inactive) | 4.14 µM (inactive) | > 100 µM (inactive) | > 100 µM (inactive) | > 100 µM (inactive) | > 100 µM (inactive) | > 100 µM (inactive) | 8.04 µM (inactive) | – | > 100 µM (inactive) | – | 76.6 µM (inactive) | > 100 µM (inactive) | > 100 µM (inactive) | – | > 100 µM (inactive) | > 100 µM (inactive) |
| CC1=C2CC[C@@]3(C)C(=CCC3O)C2(C)CCC1=O (stereo not given in full) | > 100 µM (inactive) | 91.6 µM (inactive) | > 100 µM (inactive) | > 100 µM (inactive) | – | > 100 µM (inactive) | > 100 µM (inactive) | > 100 µM (inactive) | > 100 µM (inactive) | > 100 µM (inactive) | > 100 µM (inactive) | > 100 µM (inactive) | > 100 µM (inactive) | > 100 µM (inactive) | 83 µM (inactive) | > 100 µM (inactive) | > 100 µM (inactive) |
| O=C1C=C(N2CCCC2)C=C(N2CCCC2)C1 | > 100 µM (inactive) | – | > 100 µM (inactive) | > 100 µM (inactive) | > 100 µM (inactive) | > 100 µM (inactive) | > 100 µM (inactive) | > 100 µM (inactive) | – | > 100 µM (inactive) | > 100 µM (inactive) | > 100 µM (inactive) | – | > 100 µM (inactive) | 85.1 µM (inactive) | > 100 µM (inactive) | > 100 µM (inactive) |
| Cc1nc2c(sc(=S)n2-c2ccccc2)c2nc3ccccc3n12 | > 100 µM (inactive) | > 10 µM (inactive) | > 100 µM (inactive) | > 100 µM (inactive) | > 100 µM (inactive) | > 100 µM (inactive) | > 100 µM (inactive) | – | > 100 µM (inactive) | > 100 µM (inactive) | > 100 µM (inactive) | > 100 µM (inactive) | > 100 µM (inactive) | – | > 100 µM (inactive) | > 100 µM (inactive) | – |
| [O-][S+]1[C@H](c2ccccc2)c2c(-c3ccccc3)sc(-c3ccccc3)c2[C@@H]1c1ccccc1 (stereo not given in full) | 29.3 µM (inactive) | – | > 100 µM (inactive) | > 100 µM (inactive) | 6.44 µM (inactive) | 12.5 µM (inactive) | 4.75 µM (inactive) | 17.1 µM (inactive) | 8.49 µM (inactive) | 3.66 µM (inactive) | 6.04 µM (inactive) | > 100 µM (inactive) | > 100 µM (inactive) | 6.15 µM (inactive) | 12.4 µM (inactive) | 9.1 µM (inactive) | 2.96 µM (inactive) |
| C[N+](C)(C)CC(=O)N/N=c1\cc(C(=O)Nc2ccc(N=O)cc2C#N)oc2cc(O)ccc12 | > 100 µM (inactive) | > 100 µM (inactive) | > 100 µM (inactive) | > 100 µM (inactive) | > 100 µM (inactive) | > 100 µM (inactive) | > 100 µM (inactive) | > 100 µM (inactive) | > 100 µM (inactive) | > 100 µM (inactive) | – | > 100 µM (inactive) | > 100 µM (inactive) | > 100 µM (inactive) | > 100 µM (inactive) | > 100 µM (inactive) | > 100 µM (inactive) |
| COc1cc2ccc(/C(C)=N/OC(C)=O)cc2cc1OC | > 100 µM (inactive) | 22.8 µM (inactive) | – | > 100 µM (inactive) | 94 µM (inactive) | > 100 µM (inactive) | 39.7 µM (inactive) | 82.2 µM (inactive) | > 100 µM (inactive) | 63.4 µM (inactive) | 84.7 µM (inactive) | 44.4 µM (inactive) | 77.1 µM (inactive) | – | 5.81 µM (inactive) | 44.8 µM (inactive) | 51.3 µM (inactive) |
